Consider 2 compounds from patent US20130303485A1, “Compositions for Oral Administration of Zoledronic Acid or Related Compounds for Treating Disease” (priority 2012, published 2013).

Where two headings read alike, the source gives them in different places. A value given as a limit tells only on which side of the number the result lay.

For data set [1], the system named is rat complete Freund's adjuvant (CFA) model of inflammatory pain. It counts as in vivo, Sprague-Dawley rats. The conditions noted are these: for improvement in pain threshold from baseline: day three. As for the experimental part: The effect of orally administered zoledronic acid on inflammatory pain was examined using the rat complete Freund's adjuvant (CFA) model. Inflammatory pain was induced by injection of 100% CFA in a 75 μL volume into the left hind paws of Sprague-Dawley rats on day 0, followed by assessments on days 1-3. Animals were orally administered vehicle (control), zoledronic acid 18 mg/m^2 (or 3 mg/kg), zoledronic acid 120 mg/m^2 (or 20 mg/kg), or zoledronic acid 900 mg/m^2 (or 150 mg/kg) daily on days 1-3. Drug was dissolved in distilled water and prepared fresh daily. Animals were fasted prior to dosing. Under current FDA guidelines for extrapolating starting dosages from animals to humans, dosages expressed in mg/m^2 are considered equivalent between mammalian species. Thus, for example, 18 mg/m^2 in a rat is considered equivalent to 18 mg/m^2 in a human being, while 3 mg/kg in a rat may not be equivalent to 3 mg/kg in a human being.
Values for inflammatory pain (mechanical hyperalgesia) in the vehicle and drug-treated animals were obtained on day 0 prior to CFA injection, and at baseline and post-treatment on days 1-3. Pain was assessed using a digital Randall-Selitto device (dRS; IITC Life Sciences, Woodland Hills, Calif.). Animals were placed in a restraint sling that suspended the animal, leaving the hind limbs available for testing. Paw compression threshold was measured by applying increasing pressure to the plantar surface of the hind paw with a dome-shaped tip placed between the 3rd and 4th metatarsus. Pressure was applied gradually over approximately 10 seconds. Measurements were taken from the first observed nocifensive behavior of vocalization, struggle or withdrawal. A cut-off value of 300 g was used to prevent injury to the animal.
Reversal of inflammatory pain was calculated according to the formula:
% reversal=(Post-treatment−Post-CFA baseline)/(Pre-CFA baseline−Post-CFA baseline)×100.
The experiment was carried out using 9-10 animals per group.

The test system of data set [2] is rat complete Freund's adjuvant (CFA) model of arthritis pain. The data set can be described thus: Rat complete Freund's adjuvant (CFA) model of arthritis pain, paw compression threshold (Randall-Selitto). It counts as in vivo. The conditions noted are these: evaluated day 14 post CFA. As for the experimental part:
The effect of orally administered zoledronic acid on arthritis pain was examined in the rat complete Freund's adjuvant (CFA) model of arthritis pain. In this model, injection of 100% complete Freund's adjuvant (CFA) in a […] volume into the left hind paws is followed by a 10-14 day period to allow for the development of arthritis pain. Animals were orally administered vehicle (control), zoledronic acid 54 mg/m^2 (or 9 mg/kg), or zoledronic acid 360 mg/m^2 (or 60 mg/kg), divided in three equal daily doses on the first three days post CFA injection. Drug was dissolved in distilled water and prepared fresh daily. Animals were fasted prior to dosing.
Arthritis pain (mechanical hyperalgesia) in the vehicle and drug-treated animals was evaluated on day 14 post CFA injection using a digital Randall-Selitto device (dRS; IITC Life Sciences, Woodland Hills, Calif.). Animals were placed in a restraint sling that suspended the animal, leaving the hind limbs available for testing. Paw compression threshold was measured by applying increasing pressure to the plantar surface of the hind paw with a dome-shaped tip placed between the 3rd and 4th metatarsus. Pressure was applied gradually over approximately 10 seconds. […]
Reversal of arthritis pain in the ipsilateral (CFA-injected) paw was calculated according to the formula: […]

Data set [3] concerns rat tibia fracture model of complex regional pain syndrome (CRPS). The data set can be described thus: Rat tibia fracture model of complex regional pain syndrome (CRPS): hindpaw pain, weight bearing, edema, warmth. It counts as in vivo. The note with it: oral 18 mg/m^2/day (3 mg/kg/day) for 28 days. As to the method:
The effect of orally administered zoledronic acid was examined in the rat tibia fracture model of complex regional pain syndrome (CRPS). CRPS was induced in the rats by fracturing the right distal tibias of the animals and casting the fractured hindpaws for 4 weeks, as described in Guo T Z et al. (Pain. 2004; 108:95-107).
Animals were orally administered either vehicle (control) or zoledronic acid, in a dosage of 18 mg/m^2/day (3 mg/kg/day) for 28 days, starting on the day of fracture and casting. Drug was dissolved in distilled water and administered by gavage. Animals were fasted for 4 hours before and 2 hours after dosing. At the end of the 28-day period, casts were removed, and on the following day, the rats were tested for hindpaw pain, edema, and warmth.
Pain was assessed by measuring hyperalgesia, and weight bearing.
To measure hyperalgesia, an up-down von Frey testing paradigm was used. Rats were placed in a clear plastic cylinder (20 cm in diameter) with a wire mesh bottom and allowed to acclimate for 15 minutes. The paw was tested with one of a series of eight von Frey hairs ranging in stiffness from 0.41 g to 15.14 g. The von Frey hair was applied against the hindpaw plantar skin at approximately midsole, taking care to avoid the tori pads. The fiber was pushed until it slightly bowed and then it was jiggled in that position for 6 seconds. Stimuli were presented at an interval of several seconds. Hindpaw withdrawal from the fiber was considered a positive response. The initial fiber presentation was 2.1 g and the fibers were presented according to the up-down method of Dixon to generate six responses in the immediate vicinity of the 50% threshold. […].
An incapacitance device (IITC Inc. Life Science, Woodland, Calif., USA) was used to measure hindpaw weight bearing, a postural effect of pain. The rats were manually held in a vertical position over the apparatus with the hindpaws resting on separate metal scale plates and the entire weight of the rat was supported on the hindpaws. The duration of each measurement was 6 seconds and 10 consecutive measurements were taken at 60-second intervals. Eight readings (excluding the highest and lowest ones) were averaged to calculate the bilateral hindpaw weight-bearing values. Weight bearing data were analyzed as the ratio between right (fracture) and left hindpaw weight bearing values ((2R/(R+L))×100%).
A laser sensor technique was used to determine the dorsal-ventral thickness of the hindpaw. Before baseline testing the bilateral hindpaws were tattooed with a 2 to 3 mm spot on the dorsal skin over the midpoint of the third metatarsal. […]
The temperature of the hindpaw was measured using a fine wire thermocouple (Omega, Stanford, Conn., USA) applied to the paw skin. […]

Data set [4] can be described thus: physchem. As to the method:
The aqueous solubility of zoledronic acid and disodium zoledronate tetrahydrate was determined. One gram of the test compound was measured in to a beaker. Demineralized water (pH 5.5) was then added in small increments to the test compound, and sonification was applied to the mixture. The procedure was continued until complete dissolution was achieved. Full dissolution was determined to have been reached when a clear solution was present with no visible material. The volume of water required to reach full dissolution was used to calculate a solubility value expressed in grams per 100 mL. The procedure was performed for each compound.

The mark [5] stands for this setting: oral 18 mg/m^2 (3 mg/kg) daily on days 1-3.
Setting [6] is: oral 900 mg/m^2 (150 mg/kg) daily on days 1-3.

`O=P(O)(O)C(O)(Cn1ccnc1)P(=O)(O)O` [zoledronic acid]: the “reversal of inflammatory pain” value in data set [1] (setting [5]) came out at 29%; in data set [1] (setting [6]), 48%. The results for the “improvement in pain threshold from baseline” value in data set [1] (setting [5]) and in data set [1] (setting [6]) were 49% and 83%, respectively. Also, the “paw compression thresholds versus vehicle” value is “higher than for vehicle” in data set [1] (oral 18 mg/m^2, entire measurement period after 30 minutes from start of treatment); “approximately equal or inferior to vehicle” in data set [1] (oral 120 mg/m^2 (20 mg/kg) daily, all time points during the assessment period); “lower than vehicle” in data set [1] (two higher doses (120 and 900 mg/m^2), first two days of dosing). In addition, the toxicity result in data set [1] (oral 900 mg/m^2 (150 mg/kg) daily on days 1-3, two days after cessation of dosing) is “significant toxicity necessitating euthanization of all the animals in this group”. The “reversal of arthritis pain” value in data set [2] (oral 54 mg/m^2 (9 mg/kg) in three equal daily doses) was determined as 33%; in data set [2] (oral 360 mg/m^2 (60 mg/kg) in three equal daily doses), 54%. Also, the “reduction of hindpaw warmth versus vehicle” value in data set [3] is 5%. Further, the “reversal of fracture induced pain (von Frey threshold) as compared to vehicle” value in data set [3] stood at 77%. The “hindlimb weight bearing, % of normal” value in data set [3] (fracture hindlimb) was 86 % of normal. Further, in data set [3] (hindpaw thickness), the “reduction of hindpaw edema versus vehicle” value came out at 60%. The compound further yielded a solubility in data set [4] (pH 5.5, water, thermodynamic from solid) not below 2500 µg/mL.
Turning to `O.O.O.O.O=P([O-])(O)C(O)(Cn1ccnc1)P(=O)([O-])O.[Na+].[Na+]` [disodium zoledronate tetrahydrate], the aqueous solubility in data set [4] (pH 5.5) is given as not below 12.5 g/100 mL.
